Test results taken from PubChem BioAssay AID256 (DTP/NCI, 2004).
“And” between values parts separate entries of the source, which are not always exact repeats. Equal values may be shown once. Inconclusive results and toxic doses are left out.

Tested on: CD2F1 mice, L1210 leukemia ip, survival T/C
Assay: NCI In Vivo Anticancer Drug Screen. Data for tumor model L1210 Leukemia (intraperitoneal) in CD2F1 (CDF1) mice
Settings: endpoint: mean survival time, higher = longer survival
How it was run: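 Transplantable tumor in mice; compound-treated vs vehicle-treated groups. Read-out = treated/control ratio of the measured endpoint.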

[1] = dose: 100.0 mg/kg/injection, schedule: Q01DX009 (ip), vehicle: saline with Tween-80
[2] = dose: 100.0 mg/kg/injection, schedule: Q04DX003 (ip), vehicle: saline with Tween-80
[3] = dose: 200.0 mg/kg/injection, schedule: Q01DX009 (ip), vehicle: saline with Tween-80
[4] = dose: 200.0 mg/kg/injection, schedule: Q04DX003 (ip), vehicle: saline with Tween-80
[5] = dose: 400.0 mg/kg/injection, schedule: Q01DX009 (ip), vehicle: saline with Tween-80
[6] = dose: 400.0 mg/kg/injection, schedule: Q04DX003 (ip), vehicle: saline with Tween-80
[7] = dose: 6.25 mg/kg/injection, schedule: Q01DX009 (ip), vehicle: saline
[8] = dose: 12.5 mg/kg/injection, schedule: Q01DX009 (ip), vehicle: saline
[9] = dose: 25.0 mg/kg/injection, schedule: Q01DX009 (ip), vehicle: saline
[10] = dose: 75.0 mg/kg/injection, schedule: Q01DX001 (ip), vehicle: other
[11] = dose: 50.0 mg/kg/injection, schedule: Q04DX003 (ip), vehicle: saline with Tween-80
[12] = dose: 100.0 mg/kg/injection, schedule: Q01DX001 (ip), vehicle: saline with Tween-80
[13] = dose: 400.0 mg/kg/injection, schedule: Q01DX001 (ip), vehicle: saline with Tween-80
[14] = dose: 25.0 mg/kg/injection, schedule: Q01DX009 (ip), vehicle: saline with Tween-80
[15] = dose: 50.0 mg/kg/injection, schedule: Q01DX009 (ip), vehicle: saline with Tween-80
[16] = dose: 100.0 mg/kg/injection, schedule: Q04DX003 (ip), vehicle: saline
[17] = dose: 200.0 mg/kg/injection, schedule: Q04DX003 (ip), vehicle: saline
[18] = dose: 50.0 mg/kg/injection, schedule: Q01DX009 (ip), vehicle: saline
[19] = dose: 100.0 mg/kg/injection, schedule: Q01DX009 (ip), vehicle: saline

## CCc1ccc(OS(=O)(=O)c2cccc([N+](=O)[O-])c2)cc1
[1]
  T/C: 98 % of control
[2]
  T/C: 94 % of control
[3]
  T/C: 91 % of control
[4]
  T/C: 105 % of control
[5]
  T/C: 102 % of control
[6]
  T/C: 100 % of control

## CCC[P+](c1ccccc1)(c1ccccc1)c1ccccc1
dose: 3.13 mg/kg/injection, schedule: Q01DX009 (ip), vehicle: saline
  T/C: 106 % of control
[7]
  T/C: 113 % of control
[8]
  T/C: 120 % of control
[9]
  T/C: 117 % of control
[10]
  T/C: 93 % of control

## COC(=O)c1csc(C2OC(CO)C(O)C2O)n1 (stereo not given)
dose: 25.0 mg/kg/injection, schedule: Q01DX005 (ip), vehicle: water
  T/C: 107 % of control
dose: 50.0 mg/kg/injection, schedule: Q01DX005 (ip), vehicle: water
  T/C: 103 % of control
dose: 100.0 mg/kg/injection, schedule: Q01DX005 (ip), vehicle: water
  T/C: 101 % of control
dose: 200.0 mg/kg/injection, schedule: Q01DX005 (ip), vehicle: water
  T/C: 101 % of control
dose: 400.0 mg/kg/injection, schedule: Q01DX005 (ip), vehicle: water
  T/C: 102 % of control

## CC1(C)N=C(N)N=C(N)N1c1ccc(OCCCCNC(=O)c2cccc(S(=O)(=O)F)c2)c(Cl)c1
dose: 5.0 mg/kg/injection, schedule: Q01DX001 (ip), vehicle: saline with Tween-80
  T/C: 105 % of control
dose: 5.0 mg/kg/injection, schedule: Q01DX009 (ip), vehicle: saline
  T/C: 102 % of control
dose: 10.0 mg/kg/injection, schedule: Q01DX001 (ip), vehicle: saline with Tween-80
  T/C: 95 % of control
dose: 10.0 mg/kg/injection, schedule: Q01DX009 (ip), vehicle: saline
  T/C: 98 % of control
dose: 20.0 mg/kg/injection, schedule: Q01DX001 (ip), vehicle: saline with Tween-80
  T/C: 94 % of control
dose: 20.0 mg/kg/injection, schedule: Q01DX009 (ip), vehicle: saline
  T/C: 98 % of control

## Cc1ccc(C(=O)NN)cc1
dose: 25.0 mg/kg/injection, schedule: Q04DX003 (ip), vehicle: saline with Tween-80
  T/C: 96 % of control
[11]
  T/C: 96 % of control
[2]
  T/C: 95 % of control and 107 % of control

## O=[N+]([O-])c1cnc(C2=C(O)c3ccccc3CC2)s1
dose: 25.0 mg/kg/injection, schedule: Q01DX001 (ip), vehicle: saline with Tween-80
  T/C: 96 % of control
dose: 50.0 mg/kg/injection, schedule: Q01DX001 (ip), vehicle: saline with Tween-80
  T/C: 96 % of control
[12]
  T/C: 100 % of control

## C1CO[P+]2(O1)OCCO2
dose: 100.0 mg/kg/injection, schedule: Q04DX002 (ip), vehicle: saline
  T/C: 95 % of control
dose: 200.0 mg/kg/injection, schedule: Q04DX002 (ip), vehicle: saline
  T/C: 107 % of control
dose: 400.0 mg/kg/injection, schedule: Q04DX002 (ip), vehicle: saline
  T/C: 95 % of control

## COc1ccc(/C=C/C(=O)Oc2cc(O)cc(O)c2)cc1
dose: 12.5 mg/kg/injection, schedule: Q04DX002 (ip), vehicle: saline with Tween-80
  T/C: 97 % of control
dose: 25.0 mg/kg/injection, schedule: Q04DX002 (ip), vehicle: saline with Tween-80
  T/C: 93 % of control
dose: 50.0 mg/kg/injection, schedule: Q04DX002 (ip), vehicle: saline with Tween-80
  T/C: 101 % of control
dose: 200.0 mg/kg/injection, schedule: Q01DX001 (ip), vehicle: saline with Tween-80
  T/C: 94 % of control
[13]
  T/C: 92 % of control

## O=C(CC(=O)OCc1ccc([N+](=O)[O-])cc1)OCc1ccc([N+](=O)[O-])cc1
dose: 200.0 mg/kg/injection, schedule: Q01DX001 (ip), vehicle: Klucel (hydroxypropylcellulose) (HPC)
  T/C: 96 % of control
dose: 400.0 mg/kg/injection, schedule: Q01DX001 (ip), vehicle: Klucel (hydroxypropylcellulose) (HPC)
  T/C: 93 % of control

## CCc1ccccc1NC(=O)/C=C/C(=O)O
[1]
  T/C: 102 % of control
[2]
  T/C: 98 % of control
[3]
  T/C: 100 % of control
[5]
  T/C: 102 % of control
[6]
  T/C: 92 % of control

## COc1cccc(CNc2ncnc3nc[nH]c23)c1
[2]
  T/C: 92 % of control
[4]
  T/C: 91 % of control
[6]
  T/C: 97 % of control

## CC(C)(C)C(=O)CC(=O)C(C)(C)C.CC(C)(C)C(=O)CC(=O)C(C)(C)C.CC(C)(C)C(=O)CC(=O)C(C)(C)C.[Fe]
[1]
  T/C: 98 % of control
[2]
  T/C: 100 % of control
[3]
  T/C: 97 % of control
[4]
  T/C: 96 % of control
[5]
  T/C: 95 % of control
[6]
  T/C: 91 % of control

## c1ccc2c(c1)cnc1cc3c(cc12)ncc1ccccc13
dose: 100.0 mg/kg/injection, schedule: Q01DX001 (ip), vehicle: saline
  T/C: 98 % of control
dose: 200.0 mg/kg/injection, schedule: Q01DX001 (ip), vehicle: saline
  T/C: 106 % of control
dose: 400.0 mg/kg/injection, schedule: Q01DX001 (ip), vehicle: saline
  T/C: 116 % of control

## N=c1c2ncn(C3OC(CO)C(O)C3O)c2ncn1Cc1ccc([N+](=O)[O-])cc1 (stereo not given)
dose: 100.0 mg/kg/injection, schedule: Q01DX001 (ip), vehicle: carboxymethylcellulose (CMC)
  T/C: 97 % of control
dose: 200.0 mg/kg/injection, schedule: Q01DX001 (ip), vehicle: carboxymethylcellulose (CMC)
  T/C: 104 % of control
dose: 400.0 mg/kg/injection, schedule: Q01DX001 (ip), vehicle: carboxymethylcellulose (CMC)
  T/C: 97 % of control

## FC(F)(F)c1[nH]nc(-c2ccc(Cl)cc2)c1N=NN1CCOCC1
[10]
  T/C: 91 % of control
dose: 150.0 mg/kg/injection, schedule: Q01DX001 (ip), vehicle: other
  T/C: 95 % of control

## Cc1[nH]c(C(=O)NN)c(C)c1C(=O)NN
[14]
  T/C: 111 % of control
[15]
  T/C: 100 % of control
[1]
  T/C: 103 % of control
[2]
  T/C: 98 % of control

## O=C(O)C1C2C/C(=N\O)C(C2)C1C(=O)O (stereo not given)
dose: 50.0 mg/kg/injection, schedule: Q04DX003 (ip), vehicle: saline
  T/C: 94 % of control
[16]
  T/C: 101 % of control
[17]
  T/C: 103 % of control

## CCCCCCCC/C=C/CCCCCCCCCCCCBr
[1]
  T/C: 104 % of control
[16]
  T/C: 98 % of control
[3]
  T/C: 93 % of control
[17]
  T/C: 97 % of control
[5]
  T/C: 103 % of control
dose: 400.0 mg/kg/injection, schedule: Q04DX003 (ip), vehicle: saline
  T/C: 92 % of control

## CCCN(CCC)N=Nc1c(C(=O)OC)n[nH]c1C
[14]
  T/C: 97 % of control
[15]
  T/C: 102 % of control
[1]
  T/C: 104 % of control and 108 % of control
dose: 117.0 mg/kg/injection, schedule: Q01DX009 (ip), vehicle: saline with Tween-80
  T/C: 122 % of control
dose: 178.0 mg/kg/injection, schedule: Q01DX009 (ip), vehicle: saline with Tween-80
  T/C: 97 % of control

## O=C(Nc1ccc2ccccc2c1-c1c(NC(=O)c2ccccc2)ccc2ccccc12)c1ccccc1
[12]
  T/C: 91 % of control
[13]
  T/C: 91 % of control

## C[N+](C)(C)c1ncnc2nc[nH]c12
[8]
  T/C: 98 % of control and 108 % of control
[9]
  T/C: 106 % of control and 108 % of control
[18]
  T/C: 97 % of control and 112 % of control
[19]
  T/C: 120 % of control and 121 % of control

## CC(=O)OCC1OC(N2CN=C(N)NC2=O)C(OC(C)=O)C1OC(C)=O (stereo not given)
dose: 3.12 mg/kg/injection, schedule: Q01DX009 (ip), vehicle: saline
  T/C: 109 % of control
[7]
  T/C: 108 % of control
[8]
  T/C: 115 % of control and 110 % of control
[18]
  T/C: 178 % of control and 183 % of control
[19]
  T/C: 203 % of control and 208 % of control

## CCSC#N
dose: 2.5 mg/kg/injection, schedule: Q01DX009 (ip), vehicle: Klucel (hydroxypropylcellulose) (HPC)
  T/C: 98 % of control
dose: 5.0 mg/kg/injection, schedule: Q01DX009 (ip), vehicle: Klucel (hydroxypropylcellulose) (HPC)
  T/C: 102 % of control
dose: 10.0 mg/kg/injection, schedule: Q01DX009 (ip), vehicle: Klucel (hydroxypropylcellulose) (HPC)
  T/C: 102 % of control

## O=Nc1ccc(O)cc1
[11]
  T/C: 100 % of control
[2]
  T/C: 105 % of control and 107 % of control
[4]
  T/C: 95 % of control and 111 % of control

## O=C(SSC(=O)c1ccccc1)c1ccccc1
[1]
  T/C: 95 % of control
[2]
  T/C: 98 % of control
[3]
  T/C: 103 % of control
[4]
  T/C: 102 % of control
[5]
  T/C: 91 % of control
[6]
  T/C: 96 % of control

## CC([NH-])C([NH-])O.[Cl][Pt+2][Cl] (stereo not given)
dose: 6.25 mg/kg/injection, schedule: Q04DX003 (ip), vehicle: saline with Tween-80
  T/C: 115 % of control

## O=C(N/N=C\C(O)C(O)C(O)C(O)CO)c1ccccc1 (stereo not given)
dose: 75.0 mg/kg/injection, schedule: Q01DX001 (ip), vehicle: saline
  T/C: 100 % of control
dose: 150.0 mg/kg/injection, schedule: Q01DX001 (ip), vehicle: saline
  T/C: 104 % of control
dose: 300.0 mg/kg/injection, schedule: Q01DX001 (ip), vehicle: saline
  T/C: 106 % of control
